Measurements: patent US20230338294A1, “NOVEL PHARMACEUTICAL FORMULATION FOR C-MET INHIBITOR” (APOLLOMICS INC., priority 2020, published 2023)

How the values were obtained:
[1] = Glass transition temperature (Tg) by modulated DSC; format: physicochemical; settings: MDSC
Protocol: DSC was performed using a TA Instruments Discovery DSC2500 differential scanning calorimeter equipped with a TA instruments Refrigerated Cooling System 90 operating in either modulated or ramp mode. DSC was used to measure thermodynamic events and characteristics of APL-101 bulk API and subsequent Spray Dried Intermediates (SDIs). Events observed include the glass transition temperature (Tg) defined as the temperature at which amorphous materials transition from a low mobility glassy state to a high mobility rubbery state, cold crystallization (Tc), defined as a crystallization event at a temperature lower than the melt temperature, and melting temperature (Tm). SDI samples were placed in non-hermetic aluminum pans and heated at a constant rate of 2.0° C./min over a 25-200° C. temperature range. The system was purged by nitrogen flow at 50 mL/min to ensure inert atmosphere through the course of measurement. APL-101 was initially analyzed by standard DSC with a heating rate of 10° C./min ramping up to 221° C. […] The resulting amorphous API was analyzed by modulated DSC to determine the glass transition temperature. […]
Thermal properties of bulk APL-101 were measured by DSC. Three API lots were tested, and it was determined that there were two API forms, Forms A and B, both of which are thought to be hydrates. […]

[2] = Two stage 'gastric transfer' non-sink biorelevant dissolution test; format: physicochemical; settings: for Cmax FaSSIF: intestinal stage FaSSIF pH 6.8; for AUC35-210 FaSSIF: 35-210 minutes in FaSSIF; for C210: concentration at 210 minutes
Protocol: Biorelevant drug dissolution performance for bulk API and subsequent ASDs was evaluated by Patheon's two stage ‘gastric transfer’ non-sink dissolution test, which simulates pH and bile salt concentrations for both gastric and intestinal exposure in a simple to perform assay. Pre-weighed powder is briefly suspended in media (e.g. by 10 sec vortex mixing with 4.0 mL media) and transferred to a pre-heated (37° C.) volume of 50 mL of 0.1N HCl (aq) pH ˜1.0, without pepsin or bile salts), in a USP Type 2 mini-vessel (100 mL total vessel volume) while stirring (paddles) at 100 rpm. After 30 minutes of gastric pH exposure, an equal volume of PBS buffered, 2× concentrated fasted-state simulated intestinal fluid (FaSSIF) is added to the HCl, resulting in a final pH of 6.8 in FaSSIF (100 mM PBS containing 2.24 mg/mL FaSSIF/FeSSIF/FaSSGF powder (Biorelevant Inc.) in a total volume of 100 mL. Aliquots (1.0 mL) of dissolution media are taken at the following time points: 10, 25, 35, 50, 70, 120 and 210 minutes. The first two aliquots are taken from the simulated gastric media, with the remaining five aliquots from the intestinal media. Aliquots are spun-down (13000 rpm) to pellet out undissolved solids, and the supernatant sampled and further diluted in an appropriate diluent to determine API total drug concentration (e.g. free and colloidal/polymer-bound drug in solution) utilizing a suitable HPLC method. The volume of FaSSIF added is adjusted to account for the sampling volume removed prior to gastric transfer (typically 4×1.0 mL). Initial API concentration in dissolution samples was determined utilizing a HPLC method.
The dissolution performance of the feasibility SDIs and bulk APL-101 was tested in a biorelevant non-sink dissolution experiment as described in EXAMPLE 1. The design of this experiment is to rank order and select lead formulations. […] 20% and 33% active HPMCAS-H and 20% active HPMC-E3LV and PVP-VA based formulations were nominated as the lead formulations.

Structure (SMILES) | Tg [1] | Tm/Tg ratio ([1]; indicative of moderate physical stability) | Cmax FaSSIF ([2]; Table 3, feasibility SDIs) | AUC35-210 FaSSIF ([2]; Table 3) | C210 ([2]; Table 3) | Cmax FaSSIF ([2]; Table 6, prototype SDI) | AUC35-210 FaSSIF ([2]; Table 6) | C210 ([2]; Table 6) | dissolution performance ([2]; gastric and intestinal media, in words)
Cn1cc2cc(C(F)(F)c3nnc4ccc(-c5cnn(C6CC6)c5)nn34)c(F)cc2n1 [APL-101 Form B, 6-(1-cyclopropylpyrazol-4-yl)-3-[difluoro-(6-fluoro-2-methylindazol-5-yl)methyl]-[1,2,4]triazolo[4,3-b]pyridazine] | 89 °C | 1.37 K/K | 8.9 μgA/mL | 1400 min*μgA/mL | 7.8 μgA/mL | 8.9 μgA/mL | 1400 min*μgA/mL | 7.8 μgA/mL | –
Cn1cc2cc(C(F)(F)c3nnc4ccc(-c5cnn(C6CC6)c5)nn34)c(F)cc2n1 [APL-101, 6-(1-cyclopropylpyrazol-4-yl)-3-[difluoro-(6-fluoro-2-methylindazol-5-yl)methyl]-[1,2,4]triazolo[4,3-b]pyridazine] | – | – | – | – | – | – | – | – | very low dissolution performance
